Some test systems named below: DU-145 prostate; HCT-116 colon; MCF7 breast; NCI-H226 lung; OVCAR-4 ovarian; SF-268 CNS; SN12C renal; SNB-75 CNS; T-47D breast; TK-10 renal.
Common to all, as to assay: DTP human tumour cell line panel, 48 h

SMILES strings stand for the structures.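 Cells were grown in 96-well plates and exposed to each compound for 48 hours at five concentrations; endpoints were interpolated linearly between bracketing concentrations, or set to the highest concentration if not reached. GI50: concentration for 50% inhibition of growth. TGI: concentration producing complete growth inhibition.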

Regarding `CC1CC[P+](c2ccccc2)(c2ccccc2)c2c1ccc1ccccc21` (stereo not drawn), the results for the GI50 with DU-145 prostate, in the experiment on NCI-H226 lung and in the experiment with TK-10 renal were 13.3 µM, 8.48 µM and 11.4 µM, respectively. Further, the TGI (usually the concentration at which net growth stops) with DU-145 prostate was more than 100 µM; in the experiment on HCT-116 colon it was more than 39.5 µM; with MCF7 breast, more than 100 µM; in the experiment with NCI-H226 lung, 62.8 µM; in the experiment on OVCAR-4 ovarian it was more than 100 µM; in the experiment on SF-268 CNS, more than 100 µM. In addition, the TGI in the experiment with SN12C renal is 37.1 µM; in the experiment with SNB-75 CNS, 6.05 µM; with T-47D breast, more than 71.6 µM; with TK-10 renal, more than 100 µM.

The record behind these values is PubChem BioAssay (NCI).
